Assay results: patent publication US6875844B1, “Peptide compounds derived from a shifted ORF of the iCE gene” (Institut Gustave Roussy, priority 1999, dated 2005)

Columns and labels:
[1] = molecular target: T1, HLA-B*0702 (Homo sapiens, UniProt P01889); assay: Binding and stability of peptide on T2 cells transfected with HLA-B*0702 (HLA-B7 expression by flow cytometry)
T1 construct: expressed in transfected cells; host or cells: T2 cells
Protocol: T2 cells were incubated at 26° C. for 16 hours in medium without serum containing peptides at a concentration of 50 μM. Then, the peptides were again added, and the cells were incubated at 37° C. At 30-min or 1-h intervals, aliquots of cells were harvested, and the change in HLA-B7 expression was monitored by flow cytometry using an anti-HLA-B7 mAB (HB59). By way of control, an HLA-A2-restricted HSP70 peptide was used. The peptide SPRWWPTCL is provided in SEQ ID NO: 2.
HLA-A2-binding peptide antigens upregulate the expression of HLA-A2 molecules on T2 cells (37). Similarly, T2 cells transfected with HLA-B*0702 (38) were used to analyze the binding capacity and the stability of the iCE peptide (FIG. 6). At […], the binding of the iCE peptide is stable over time for at least 4 h, unlike the control, which is the HLA-A2-restricted HSP70 peptide (14).

[2] = system: autologous EBV-transformed B cells; assay: Target sensitization assay: 51Cr release lysis by CTL clone 3B8 of peptide-incubated autologous EBV-transformed B cells; assay type: cell-based, human; conditions: EBV-transformed B cells incubated with peptide, CTL clone 3B8 effector 30:1, chromium release after 4 h; read-out: Peptide concentration giving semi-maximal lysis
Protocol: 2000 EBV-transformed cells were incubated and labeled with 51Cr for 1 h in the presence of the HLA-B7-restricted iCE peptide (SPRWWPTCL; SEQ ID NO:2) or another control HLA-B7-restricted peptide (VISTVVANL; SEQ ID NO:9). Clone 3B8 was then added as an effector, in a ratio set at 30:1. Chromium release was measured after 4 h.
The cytolytic activity of the CTLs was determined in a standard ^51Cr release assay as previously described (22). Target cells (RCC and K562 cell lines) were labeled for 1 h with 50 μCi to 100 μCi of ^51Cr (Du Pont, NEN, Boston, Mass.) at 37° C., and 2×10^3 cells were seeded in 96-microwell plates in 100 μl of RPMI supplemented with 5% of FCS. […] The 96-microwell plates were incubated at 37° C. for 4 h, and ^51Cr release was determined in the harvested supernatants. […]
In order to reduce the nucleotide sequence encoding the antigen, several truncated cDNAs were obtained by PCR amplification. […] After examining the corresponding amino acid sequence, all possible nonamers and decamers were synthesized, and their ability to make autologous EBV-transformed B cells sensitive to lysis by 3B8 was evaluated.
Finally, an alternative ORF was found (a+1 translational open reading frame leading to a 453-nt ORF) with three ATGs in nt positions 476, 479 and 803, which encodes a nonamer (SPRWWPTCL) (SEQ ID NO: 2) in the minimum region of nt 763-855. […]

SPRWWPTCL [nonamer encoded by the +1 alternative ORF of the iCE gene, with HLA-B7-anchoring residues at positions 2, 3 and 9]
Stability of binding to T2 cells transfected with HLA-B*0702 (in words) ([1]; T2 cells transfected with HLA-B*0702): stable with time
Time over which binding to HLA-B7 is stable ([1]; T2 cells transfected with HLA-B*0702, peptide at 50 mM (so in the source), 37° C.): at least 4 h
Binding to HLA-B*0702-presenting molecules (in words) ([1]; binding assay by immunofluorescence using transfected T2 cells): binds
EC50 [2]: < 1 µM
